Several values for one entry are separate records, joined by “and”; a condition that tells them apart may be missing. Identical values can stand only once.
Conditions: 283.15 K, Liquid, Vibrating tube method

FC(C(F)(F)F)C(F)(F)F [1,1,1,2,3,3,3-heptafluoropropane]
Conditions | mass density
25072 kPa | 1552.4 kg/m3
25508 kPa | 1553.7 kg/m3
25593 kPa | 1553.9 kg/m3
25630 kPa | 1554.1 kg/m3
25722 kPa | 1554.3 kg/m3
25865 kPa | 1554.8 kg/m3
25945 kPa | 1555.1 kg/m3
25993 kPa | 1555.1 kg/m3
26030 kPa | 1555.3 kg/m3
26068 kPa | 1555.4 kg/m3
26113 kPa | 1555.4 kg/m3
26152 kPa | 1555.7 kg/m3
26191 kPa | 1555.8 kg/m3
26249 kPa | 1555.9 kg/m3
26283 kPa | 1556 kg/m3
26327 kPa | 1556.3 kg/m3
26367 kPa | 1556.3 kg/m3
26406 kPa | 1556.2 kg/m3
26446 kPa | 1556.3 kg/m3
26479 kPa | 1556.8 kg/m3
26519 kPa | 1556.7 kg/m3
26559 kPa | 1556.8 kg/m3
26599 kPa | 1557 kg/m3
26650 kPa | 1557.1 kg/m3
26683 kPa | 1557.3 kg/m3
26723 kPa | 1557.3 kg/m3
26757 kPa | 1557.3 kg/m3
26796 kPa | 1557.5 kg/m3
26886 kPa | 1557.8 kg/m3
26921 kPa | 1557.9 kg/m3
26968 kPa | 1558.1 kg/m3
27001 kPa | 1558.1 kg/m3
27029 kPa | 1558.2 kg/m3
27058 kPa | 1558.3 kg/m3
27082 kPa | 1558.3 kg/m3
27131 kPa | 1558.5 kg/m3
27170 kPa | 1558.7 kg/m3
27199 kPa | 1558.8 kg/m3
27228 kPa | 1558.8 kg/m3
27271 kPa | 1558.9 kg/m3
27533 kPa | 1559.8 kg/m3
27563 kPa | 1559.9 kg/m3
27596 kPa | 1559.8 kg/m3
27629 kPa | 1560 kg/m3
27673 kPa | 1560 kg/m3
27710 kPa | 1560.2 kg/m3
27743 kPa | 1560.2 kg/m3
27816 kPa | 1560.5 kg/m3
27850 kPa | 1560.7 kg/m3
27880 kPa | 1560.8 kg/m3
27914 kPa | 1560.8 kg/m3
27940 kPa | 1560.9 kg/m3
27979 kPa | 1561 kg/m3
28024 kPa | 1561.2 kg/m3
28058 kPa | 1561.1 kg/m3
28091 kPa | 1561.4 kg/m3
28124 kPa | 1561.5 kg/m3
28168 kPa | 1561.6 kg/m3
28466 kPa | 1562.5 kg/m3
28514 kPa | 1562.7 kg/m3
28558 kPa | 1562.7 kg/m3
28591 kPa | 1562.8 kg/m3
28620 kPa | 1562.8 kg/m3
28657 kPa | 1562.9 kg/m3
28690 kPa | 1563.1 kg/m3
28727 kPa | 1563.2 kg/m3
28761 kPa | 1563.3 kg/m3
28795 kPa | 1563.4 kg/m3
28837 kPa | 1563.6 kg/m3
28875 kPa | 1563.5 kg/m3
29088 kPa | 1564.2 kg/m3
29357 kPa | 1565 kg/m3
29424 kPa | 1565.2 kg/m3
29452 kPa | 1565.2 kg/m3
29578 kPa | 1565.7 kg/m3
29617 kPa | 1565.6 kg/m3
29646 kPa | 1565.8 kg/m3
29684 kPa | 1565.9 kg/m3
29712 kPa | 1565.9 kg/m3
29745 kPa | 1566.1 kg/m3
29784 kPa | 1566.2 kg/m3
29814 kPa | 1566.3 kg/m3
29853 kPa | 1566.4 kg/m3
29877 kPa | 1566.5 kg/m3
29911 kPa | 1566.5 kg/m3
29944 kPa | 1566.6 kg/m3
29974 kPa | 1566.7 kg/m3
30021 kPa | 1566.8 kg/m3
30050 kPa | 1567 kg/m3
30079 kPa | 1567 kg/m3
30151 kPa | 1567.2 kg/m3
30190 kPa | 1567.4 kg/m3
30219 kPa | 1567.5 kg/m3
30259 kPa | 1567.4 kg/m3
30288 kPa | 1567.5 kg/m3
30323 kPa | 1567.7 kg/m3
30361 kPa | 1567.8 kg/m3
30390 kPa | 1567.7 kg/m3
30425 kPa | 1567.9 kg/m3
30460 kPa | 1567.9 kg/m3
30499 kPa | 1568.2 kg/m3
30529 kPa | 1568.3 kg/m3
30560 kPa | 1568.3 kg/m3
30595 kPa | 1568.5 kg/m3
30635 kPa | 1568.6 kg/m3
30666 kPa | 1568.6 kg/m3
30696 kPa | 1568.7 kg/m3
30743 kPa | 1568.9 kg/m3
30783 kPa | 1569 kg/m3
30830 kPa | 1569.1 kg/m3
30861 kPa | 1569.2 kg/m3
30897 kPa | 1569.2 kg/m3
30937 kPa | 1569.4 kg/m3
30968 kPa | 1569.5 kg/m3
30999 kPa | 1569.5 kg/m3
31030 kPa | 1569.6 kg/m3
31065 kPa | 1569.7 kg/m3
31105 kPa | 1569.9 kg/m3
31140 kPa | 1569.9 kg/m3
31187 kPa | 1570 kg/m3
31230 kPa | 1570.2 kg/m3
31267 kPa | 1570.2 kg/m3
31308 kPa | 1570.4 kg/m3
31350 kPa | 1570.6 kg/m3
31392 kPa | 1570.6 kg/m3
31429 kPa | 1570.7 kg/m3
31511 kPa | 1570.9 kg/m3
31547 kPa | 1571.1 kg/m3
31588 kPa | 1571.2 kg/m3
31620 kPa | 1571.3 kg/m3
31657 kPa | 1571.3 kg/m3
31697 kPa | 1571.5 kg/m3
31750 kPa | 1571.7 kg/m3
31782 kPa | 1571.7 kg/m3
31819 kPa | 1571.7 kg/m3
31855 kPa | 1571.9 kg/m3
31897 kPa | 1572 kg/m3
32027 kPa | 1572.4 kg/m3
32095 kPa | 1572.5 kg/m3
32132 kPa | 1572.7 kg/m3
32164 kPa | 1572.9 kg/m3
32391 kPa | 1573.4 kg/m3
32884 kPa | 1574.5 kg/m3
32921 kPa | 1574.8 kg/m3
32959 kPa | 1574.9 kg/m3
33280 kPa | 1575.7 kg/m3
33348 kPa | 1575.9 kg/m3
33384 kPa | 1576 kg/m3
33426 kPa | 1576 kg/m3
33457 kPa | 1576.2 kg/m3
33499 kPa | 1576.3 kg/m3
33535 kPa | 1576.4 kg/m3
33572 kPa | 1576.5 kg/m3
33609 kPa | 1576.6 kg/m3
33661 kPa | 1576.7 kg/m3
33688 kPa | 1576.8 kg/m3
33731 kPa | 1576.9 kg/m3
33762 kPa | 1576.9 kg/m3
33793 kPa | 1577.1 kg/m3
33830 kPa | 1577.3 kg/m3
33873 kPa | 1577.3 kg/m3
33910 kPa | 1577.4 kg/m3
33948 kPa | 1577.5 kg/m3
33984 kPa | 1577.6 kg/m3
34026 kPa | 1577.7 kg/m3
34068 kPa | 1577.8 kg/m3
34110 kPa | 1577.9 kg/m3
34148 kPa | 1577.9 kg/m3
34186 kPa | 1578.2 kg/m3
34224 kPa | 1578.1 kg/m3
34267 kPa | 1578.2 kg/m3
34310 kPa | 1578.5 kg/m3
34350 kPa | 1578.6 kg/m3
34387 kPa | 1578.6 kg/m3
34414 kPa | 1578.7 kg/m3
34442 kPa | 1578.8 kg/m3
34456 kPa | 1578.8 kg/m3
34470 kPa | 1578.8 kg/m3
34478 kPa | 1578.9 kg/m3
34486 kPa | 1578.9 kg/m3
34492 kPa | 1579.1 kg/m3
34498 kPa | 1579 kg/m3
34504 kPa | 1578.9 kg/m3
34505 kPa | 1578.9 kg/m3
34506 kPa | 1579 kg/m3
34508 kPa | 1579 kg/m3
34509 kPa | 1579 kg/m3
34511 kPa | 1579 kg/m3 and 1579.2 kg/m3
34512 kPa | 1579 kg/m3 and 1579.1 kg/m3
34513 kPa | 1579.1 kg/m3
34514 kPa | 1579.2 kg/m3
34515 kPa | 1579 kg/m3 and 1578.9 kg/m3
34516 kPa | 1579.1 kg/m3
34517 kPa | 1579 kg/m3
34518 kPa | 1579 kg/m3
34519 kPa | 1578.9 kg/m3 and 1579 kg/m3 and 1579.1 kg/m3
34520 kPa | 1578.9 kg/m3 and 1579.1 kg/m3
34521 kPa | 1579 kg/m3 and 1578.9 kg/m3
34522 kPa | 1579 kg/m3
34523 kPa | 1579.1 kg/m3 and 1579 kg/m3
34524 kPa | 1579.1 kg/m3 and 1579 kg/m3
34525 kPa | 1579 kg/m3 and 1578.9 kg/m3
34526 kPa | 1579.1 kg/m3
34527 kPa | 1579 kg/m3
34528 kPa | 1579.1 kg/m3
